Converted amounts (≈) assume the structure as drawn. The source made the active and inactive calls. The rule behind the calls is not given here. Bridge positions count the residues as written; N and C are the ends. Peptide text beside a SMILES is read from it. I, II: the chains in the order shown. * marks the point of attachment. Decanoyl = CCCCCCCCCC(=O)*; Octanoyl = CCCCCCCC(=O)*
Experiments:
[1] = Toxicity in New Zealand white rabbit erythrocytes assessed as hemolytic activity after 60 mins; assay type: cell-based, Oryctolagus cuniculus; conditions: erythrocyte, 1 h
[2] = tested on: Klebsiella pneumoniae; assay: Antibacterial activity against Klebsiella pneumoniae DM4299 after 24 hrs by broth microdilution method; assay type: functional; conditions: DM4299, 24 h
[3] = tested on: Pseudomonas aeruginosa; assay: Antibacterial activity against Pseudomonas aeruginosa DM23155 after 24 hrs by broth microdilution method; assay type: functional; conditions: DM23155, 24 h
[4] = tested on: Escherichia coli; assay: Antibacterial activity against Escherichia coli ATCC 25922 after 24 hrs by broth microdilution method; assay type: functional; conditions: ATCC 25922, 24 h
[5] = tested on: Pseudomonas aeruginosa; assay: Antibacterial activity against Pseudomonas aeruginosa DR18531 after 24 hrs by broth microdilution method; assay type: functional; conditions: DR18531, 24 h
[6] = tested on: Pseudomonas aeruginosa; assay: Antibacterial activity against Pseudomonas aeruginosa DM4150R after 24 hrs by broth microdilution method; assay type: functional
[7] = tested on: Pseudomonas aeruginosa; assay: Antibacterial activity against Pseudomonas aeruginosa DM23257 after 24 hrs by broth microdilution method; assay type: functional; conditions: DM23257, 24 h
[8] = tested on: Pseudomonas aeruginosa; assay: Antibacterial activity against Pseudomonas aeruginosa DM23376 after 24 hrs by broth microdilution method; assay type: functional; conditions: DM23376, 24 h
[9] = tested on: Pseudomonas aeruginosa; assay: Antibacterial activity against Pseudomonas aeruginosa DU14476 after 24 hrs by broth microdilution method; assay type: functional; conditions: DU14476, 24 h
[10] = tested on: Pseudomonas aeruginosa; assay: Antibacterial activity against Pseudomonas aeruginosa DR5790 after 24 hrs by broth microdilution method; assay type: functional; conditions: DR5790, 24 h
[11] = tested on: Pseudomonas aeruginosa; assay: Antibacterial activity against Pseudomonas aeruginosa DR4877 after 24 hrs by broth microdilution method; assay type: functional; conditions: DR4877, 24 h
[12] = tested on: Pseudomonas aeruginosa; assay: Antibacterial activity against Pseudomonas aeruginosa ATCC 9027 after 24 hrs by broth microdilution method; assay type: functional; conditions: ATCC 9027, 24 h
[13] = tested on: Pseudomonas aeruginosa; assay: Antibacterial activity against Pseudomonas aeruginosa ATCC 27853 after 24 hrs by broth microdilution method; assay type: functional; conditions: ATCC 27853, 24 h
[14] = tested on: Lipopolysaccharide (LPS); assay: Displacement of dansylcadaverine from Escherichia coli 0111:B4 LPS at 15 to 30 uM after 5 mins by high-throughput fluorescence displacement assay
[15] = tested on: Lipopolysaccharide (LPS); assay: Induction of Escherichia coli 0111:B4 LPS neutralization using p-nitroaniline assessed as concentration required to neutralize 50% after 1 hr by limulus amebocyte lysate assay
[16] = tested on: Pseudomonas aeruginosa; assay: Induction of 1-N-phenylnaphthylamine uptake in Pseudomonas aeruginosa DM23155 at 400 uM after 1 hr by fluorescence assay relative to polymyxin B; assay type: functional
[17] = tested on: Pseudomonas aeruginosa; assay: Induction of cytoplasmic membrane depolarization in Pseudomonas aeruginosa DM23155 at 4 times MIC after 1 hr by fluorescence assay; assay type: functional, organism-based
[18] = Induction of calcein leakage from DOPC artificial membrane at 1:32 ratio of compound to lipid by fluorescence assay; assay type: physicochemical
[19] = tested on: Pseudomonas aeruginosa; assay: Antibacterial activity against Pseudomonas aeruginosa DM23155 assessed as log reduction of viable count at 2 times MIC after 30 mins by time-kill assay relative to control; assay type: functional
[20] = tested on: Pseudomonas aeruginosa; assay: Antibacterial activity against Pseudomonas aeruginosa DM23155 assessed as log reduction of viable count MIC up to 24 hrs by time-kill assay; assay type: functional, organism-based
[21] = tested on: Pseudomonas aeruginosa; assay: Antibacterial activity against Pseudomonas aeruginosa DM23155 assessed as log reduction of viable count at 1 to 2 times MIC by time-kill assay relative to control; assay type: functional, organism-based
[22] = tested on: Pseudomonas aeruginosa; assay: Antibacterial activity against Pseudomonas aeruginosa DM23155 assessed as log reduction of viable count at 1 to 2 times MIC after 24 hrs by time-kill assay; assay type: functional, organism-based
[23] = tested on: Pseudomonas aeruginosa; assay: Antibacterial activity against Pseudomonas aeruginosa DM23155 after 24 hrs by checkerboard assay in presence of nalidixic acid; assay type: functional
[24] = tested on: Pseudomonas aeruginosa; assay: Antibacterial activity against Pseudomonas aeruginosa DM23155 after 24 hrs by checkerboard assay in presence of gentamicin; assay type: functional
[25] = tested on: Pseudomonas aeruginosa; assay: Antibacterial activity against Pseudomonas aeruginosa DM23155 after 24 hrs by checkerboard assay in presence of erythromycin; assay type: functional
[26] = tested on: Pseudomonas aeruginosa; assay: Antibacterial activity against Pseudomonas aeruginosa DM23155 after 24 hrs by checkerboard assay in presence of streptomycin; assay type: functional
[27] = tested on: Pseudomonas aeruginosa; assay: Antibacterial activity against Pseudomonas aeruginosa DM23155 after 24 hrs by checkerboard assay in presence of kanamycin; assay type: functional
[28] = tested on: Escherichia coli; assay: Antibacterial activity against Escherichia coli ATCC 25922 after 24 hrs by checkerboard assay in presence of nalidixic acid; assay type: functional
[29] = tested on: Escherichia coli; assay: Antibacterial activity against Escherichia coli ATCC 25922 after 24 hrs by checkerboard assay in presence of gentamicin; assay type: functional
[30] = tested on: Escherichia coli; assay: Antibacterial activity against Escherichia coli ATCC 25922 after 24 hrs by checkerboard assay in presence of erythromycin; assay type: functional
[31] = tested on: Escherichia coli; assay: Antibacterial activity against Escherichia coli ATCC 25922 after 24 hrs by checkerboard assay in presence of streptomycin; assay type: functional
[32] = tested on: Escherichia coli; assay: Antibacterial activity against Escherichia coli ATCC 25922 after 24 hrs by checkerboard assay in presence of kanamycin; assay type: functional
[33] = tested on: Pseudomonas aeruginosa; assay: Induction of cytoplasmic membrane disruption in Pseudomonas aeruginosa DM23155 assessed as membrane integrity at 1 to 2 times MIC after 1 hr by fluorescence assay; assay type: functional
[34] = tested on: Pseudomonas aeruginosa; assay: Induction of cytoplasmic membrane disruption in Pseudomonas aeruginosa DM23155 assessed as membrane integrity at 2 times MIC after 1 hr by fluorescence assay; assay type: functional
[35] = Induction of calcein leakage from DOPE/DOPG artificial membrane at 1:32 ratio of compound to lipid by fluorescence assay; assay type: physicochemical

Compound | HC10 [1] [µg/mL] | MIC [2] [µM] | MIC [3] [µM] | MIC [4] [µM] | MIC [5] [µM] | MIC [6] [µM] | MIC [7] [µM] | MIC [8] [µM] | MIC [9] [µM] | MIC [10] [µM] | MIC [11] [µM] | MIC [12] [µM] | MIC [13] [µM] | Activity [14] [%] | EC50 [15] [µM] | Activity [17] | Activity [18] | also measured
CCCCCCCC(=O)N[C@@H](CCCNC(=N)N)C(=O)NCC(=O)N[C@@H](CCCNC(=N)N)C(=O)N[C@@H](CCCCN)C(=O)NCC(=O)NCC(=O)N[C@@H](CCCNC(=N)N)C(=O)N[C@@H](CCCNC(=N)N)C(=O)NCCCC[C@H](NC(=O)[C@H](CCCNC(=N)N)NC(=O)[C@H](CCCNC(=N)N)NC(=O)CNC(=O)CNC(=O)[C@H](CCCCN)NC(=O)[C@H](CCCNC(=N)N)NC(=O)CNC(=O)[C@H](CCCNC(=N)N)NC(=O)CCCCCCC)C(=O)N[C@@H](CCCCN)C(=O)O (I: Octanoyl-RGRKGGRRKK-OH / II: Octanoyl-RGRKGGRR; amide I:9-II:C) | > 10000 | 3 (≈ 7.12 µg/mL) | 3 (≈ 7.12 µg/mL) | 3 (≈ 7.12 µg/mL) | 3 (≈ 7.12 µg/mL) | 3 (≈ 7.12 µg/mL) | 6 (≈ 14.2 µg/mL) | 3 (≈ 7.12 µg/mL) | 3 (≈ 7.12 µg/mL) | 3 (≈ 7.12 µg/mL) | 3 (≈ 7.12 µg/mL) | 3 (≈ 7.12 µg/mL) | 3 (≈ 7.12 µg/mL) | 112 | 117 | Active | Active | Activity [16]: 20%; FC [19]: 3; Activity [20]: Dose-dependent effect; Activity [21]: Active; Activity [22]: Active; fractional inhibitory concentration index (FICI) [23]: 0.56; fractional inhibitory concentration index (FICI) [24]: 0.38; fractional inhibitory concentration index (FICI) [25]: 0.38; fractional inhibitory concentration index (FICI) [26]: 0.56; fractional inhibitory concentration index (FICI) [27]: 0.56; fractional inhibitory concentration index (FICI) [28]: 0.56; fractional inhibitory concentration index (FICI) [29]: 0.38; fractional inhibitory concentration index (FICI) [30]: 1; fractional inhibitory concentration index (FICI) [31]: 0.5; fractional inhibitory concentration index (FICI) [32]: 0.56
CCCCCCCCCC(=O)N[C@@H](CCCNC(=N)N)C(=O)NCC(=O)N[C@@H](CCCNC(=N)N)C(=O)N[C@@H](CCCCN)C(=O)N[C@H](C(=O)N[C@H](C(=O)N[C@@H](CCCNC(=N)N)C(=O)N[C@@H](CCCNC(=N)N)C(=O)NCCCC[C@H](NC(=O)[C@H](CCCNC(=N)N)NC(=O)[C@H](CCCNC(=N)N)NC(=O)[C@@H](NC(=O)[C@@H](NC(=O)[C@H](CCCCN)NC(=O)[C@H](CCCNC(=N)N)NC(=O)CNC(=O)[C@H](CCCNC(=N)N)NC(=O)CCCCCCCCC)C(C)C)C(C)C)C(=O)N[C@@H](CCCCN)C(=O)O)C(C)C)C(C)C (I: Decanoyl-RGRKVVRRKK-OH / II: Decanoyl-RGRKVVRR; amide I:9-II:C) | > 10000 | 3 (≈ 7.8 µg/mL) | 3 (≈ 7.8 µg/mL) | 6 (≈ 15.6 µg/mL) | 1.5 (≈ 3.9 µg/mL) | 1.5 (≈ 3.9 µg/mL) | 3 (≈ 7.8 µg/mL) | 3 (≈ 7.8 µg/mL) | 3 (≈ 7.8 µg/mL) | 3 (≈ 7.8 µg/mL) | 6 (≈ 15.6 µg/mL) | 3 (≈ 7.8 µg/mL) | 3 (≈ 7.8 µg/mL) | 131 | 38.1 | Active | Active | Activity [33]: >80%; Activity [34]: 51.1%; Activity [35]: Active

— ChEMBL document CHEMBL3603789, “N-Lipidated Peptide Dimers: Effective Antibacterial Agents against Gram-Negative Pathogens through Lipopolysaccharide Permeabilization” (J Med Chem, 2015)
